Source: PMC7582373, “Bis-Lactam Peptide [i, i+4]-Stapling with α-Methylated Thialysines” (Molecules, 2020)
*1 amine or outer side, *2 acyl side, *3 side chain or, on linkers, in order; H or OH if unused. Where a SMILES comes first, the peptide text is derived from it. Bridges are numbered along the chain shown (N, C = ends). [ ]: non-standard residue; d: D form. X1 = O=C(Cc1ccc(CC(=O)NCC[*:2])cc1)NCC[*:1]; αMeC = C[C@](N)(CS)C(=O)O

What was measured:
circular dichroism = details: water; pH ns; 25 °C; 25 and/or 50 uM
in vitro = in vitro ADME; details: Streptomyces griseus, isolated enzyme pronase, pH 7.3
Source text: We further compared the proteolytic stability of the L-α-methyl-thialysine-stapled peptide 5 and the L-thialysine-stapled peptide 6 by employing pronase as the proteolytic enzyme preparation in a proteolysis experiment. Of note, pronase is a mixture of a variety of different proteases/peptidases and therefore has a very broad substrate specificity. […] This observed difference in the proteolytic stability of 5 and 6 is in the same direction of change with the % α-helicity of 5 and 6 (see above), which would be consistent with the notion that an enhanced % α-helicity would improve the proteolytic stability of a stapled peptide, which was also supported previously with the peptides stapled with other stapling systems such as the all-hydrocarbon-stapled peptides.
The following materials were obtained from commercial sources for compound synthesis/purification and the pronase digestion assay, and were used as received. Sigma-Aldrich China (Shanghai, China): N-methylmorpholine (NMM), trifluoroacetic acid (TFA), N,N-dimethylformamide (DMF), N-(allyloxycarbonyloxy)succinimide (Alloc-OSu), triethylamine, Trizma, the pronase from Streptomyces griseus; TCI Shanghai: para-phenylenediacetic acid, 2-(tert-butoxycarbonylamino)ethyl bromide, 1,8-diazabicyclo[5.4.0]undec-7-ene (DBU), L-cysteine, N-(9-fluorenylmethoxycarbonyloxy) succinimide (Fmoc-OSu), phenylsilane (PhSiH3), tetrakis(triphenylphosphine)palladium (Pd(PPh3)4); Alfa Aesar China (Shanghai, China): 2-(1H-benzotriazole-1-yl)-1,1,3,3-tetramethylaminium hexafluorophosphate (HBTU), 2-(7-Aza-1H-benzotriazole-1-yl)-1,1,3,3-tetramethyluronium hexafluorophosphate (HATU), N-hydroxybenzotriazole (HOBt), phenol, thioanisole, ethanedithiol; Honeywell China (Shanghai, China): acetonitrile, dichloromethane (DCM), methanol, ethyl acetate; Sinopharm Chemical Reagent Co., Ltd. (Shanghai, China): acetic anhydride, diethyl ether, semi-preparative thin-layer chromatography (TLC) silica gel plate (HSGF254, 20 × 20 cm, 0.4–0.5 mm); Shanghai Plus Bio-Sci & Tech Co., Ltd. (Shanghai, China): Rink amide 4-methylbenzhydrylamine (MBHA) resin; SyncoZymes Co., Ltd. (Shanghai, China): D-2-methyl-cysteine hydrochloride; Fisher Scientific Worldwide Co., Ltd. (Shanghai, China): L-2-methyl-cysteine hydrochloride.
This experiment followed the protocol described previously. Fifty (50) µL of an 160 μM solution of a peptide (5, 6, 7, or 8) in ddH2O was thoroughly mixed with 50 μL of an 8 ng/μL solution of pronase in 100 mM Tris•HCl (pH 7.3), and the resultant solution was incubated at 37 °C until quenched at different time points (0 min, 4 min, 7.5 min, and 15 min) with an 1.0 M solution of acetic acid in ddH2O. Twenty (20) μL of a pronase digestion solution was taken at each time point and treated immediately with 40 μL of the 1.0 M acetic acid aqueous solution, followed instantly by vigorous vortexing and centrifugation. The obtained supernatant was then injected into a C18 analytical HPLC column (0.46 × 25 cm, 5 μm), and the column was eluted at 1 mL/min with ultraviolet monitoring at 214 nm with the following gradients of ddH2O containing 0.05% (v/v) TFA (mobile phase A) and acetonitrile containing 0.05% (v/v) TFA (mobile phase B): linear increase of B from 0% to 45% in 60 min (for 5 and 6), linear increase of B from 0% to 60% in 60 min (for 7), or linear increase of B from 0% to 100% in 60 min (for 8). The integrated HPLC peak areas at different time points for a given peptide were used to estimate the percentage remaining for the peptide as the function of the digestion time.

Row | SMILES | helicity (circular dichroism) [%] | remaining at 4 min, 80 µM (in vitro) [%] | remaining at 0.125 h, 80 µM (in vitro) [%] | remaining at 0.25 h, 80 µM (in vitro) [%]
1 | CC[C@H](C)[C@H](NC(=O)[C@H](CCC(=O)O)NC(=O)[C@H](CO)NC(C)=O)C(=O)N[C@H](C(=O)N[C@@H](CCCCN)C(=O)N[C@@H](CCC(N)=O)C(=O)N[C@@H](CCC(=O)O)C(=O)N[C@@H](CCCCN)C(=O)N[C@@]1(C)CSCCNC(=O)Cc2ccc(cc2)CC(=O)NCCSC[C@](C)(C(=O)N[C@@H](Cc2c[nH]cn2)C(=O)N[C@@H](CCCNC(=N)N)C(=O)N[C@@H](Cc2c[nH]cn2)C(=O)N[C@@H](Cc2ccc(O)cc2)C(=O)N[C@@H](CS)C(N)=O)NC(=O)[C@H](Cc2c[nH]c3ccccc23)NC(=O)[C@H](CC(C)C)NC(=O)[C@H](Cc2ccccc2)NC1=O)[C@@H](C)O | 11.8 |  |  | 
2 | CC[C@H](C)[C@H](NC(=O)[C@H](CCC(=O)O)NC(=O)[C@H](CO)NC(C)=O)C(=O)N[C@H](C(=O)N[C@@H](CCCCN)C(=O)N[C@@H](CCC(N)=O)C(=O)N[C@@H](CCC(=O)O)C(=O)N[C@@H](CCCCN)C(=O)N[C@]1(C)CSCCNC(=O)Cc2ccc(cc2)CC(=O)NCCSC[C@@](C)(C(=O)N[C@@H](Cc2c[nH]cn2)C(=O)N[C@@H](CCCNC(=N)N)C(=O)N[C@@H](Cc2c[nH]cn2)C(=O)N[C@@H](Cc2ccc(O)cc2)C(=O)N[C@@H](CS)C(N)=O)NC(=O)[C@H](Cc2c[nH]c3ccccc23)NC(=O)[C@H](CC(C)C)NC(=O)[C@H](Cc2ccccc2)NC1=O)[C@@H](C)O | 11.1 |  |  | 
3 | CC[C@H](C)[C@H](NC(=O)[C@H](CCC(=O)O)NC(=O)[C@H](CO)NC(C)=O)C(=O)N[C@H](C(=O)N[C@@H](CCCCN)C(=O)N[C@@H](CCC(N)=O)C(=O)N[C@@H](CCC(=O)O)C(=O)N[C@@H](CCCCN)C(=O)N[C@]1(C)CSCCNC(=O)Cc2ccc(cc2)CC(=O)NCCSC[C@](C)(C(=O)N[C@@H](Cc2c[nH]cn2)C(=O)N[C@@H](CCCNC(=N)N)C(=O)N[C@@H](Cc2c[nH]cn2)C(=O)N[C@@H](Cc2ccc(O)cc2)C(=O)N[C@@H](CS)C(N)=O)NC(=O)[C@H](Cc2c[nH]c3ccccc23)NC(=O)[C@H](CC(C)C)NC(=O)[C@H](Cc2ccccc2)NC1=O)[C@@H](C)O | 10.4 |  |  | 
4 | CC[C@H](C)[C@H](NC(=O)[C@H](CCC(=O)O)NC(=O)[C@H](CO)NC(C)=O)C(=O)N[C@H](C(=O)N[C@@H](CCCCN)C(=O)N[C@@H](CCC(N)=O)C(=O)N[C@@H](CCC(=O)O)C(=O)N[C@@H](CCCCN)C(=O)N[C@@]1(C)CSCCNC(=O)Cc2ccc(cc2)CC(=O)NCCSC[C@@](C)(C(=O)N[C@@H](Cc2c[nH]cn2)C(=O)N[C@@H](CCCNC(=N)N)C(=O)N[C@@H](Cc2c[nH]cn2)C(=O)N[C@@H](Cc2ccc(O)cc2)C(=O)N[C@@H](CS)C(N)=O)NC(=O)[C@H](Cc2c[nH]c3ccccc23)NC(=O)[C@H](CC(C)C)NC(=O)[C@H](Cc2ccccc2)NC1=O)[C@@H](C)O [compound 5] | 10.4 | ~19.2 | ~5.6 | 
5 | CC[C@H](C)[C@H](NC(=O)[C@H](CCC(=O)O)NC(=O)[C@H](CO)NC(C)=O)C(=O)N[C@H](C(=O)N[C@@H](CCCCN)C(=O)N[C@@H](CCC(N)=O)C(=O)N[C@@H](CCC(=O)O)C(=O)N[C@@H](CCCCN)C(=O)N[C@H]1CSCCNC(=O)Cc2ccc(cc2)CC(=O)NCCSC[C@@H](C(=O)N[C@@H](Cc2c[nH]cn2)C(=O)N[C@@H](CCCNC(=N)N)C(=O)N[C@@H](Cc2c[nH]cn2)C(=O)N[C@@H](Cc2ccc(O)cc2)C(=O)N[C@@H](CS)C(N)=O)NC(=O)[C@H](Cc2c[nH]c3ccccc23)NC(=O)[C@H](CC(C)C)NC(=O)[C@H](Cc2ccccc2)NC1=O)[C@@H](C)O [compound 6] (Ac-SEITKQEKCFLWCHRHYC-NH2; linker 9-13 via X1) | 4.4 | ~11.1 | ~4.3 | 
6 | CC(=O)N[C@@H](CCC(=O)O)C(=O)N[C@@H](Cc1c[nH]c2ccccc12)C(=O)N[C@@H](C)C(=O)N[C@@H](CCC(=O)O)C(=O)N[C@H](C(=O)N[C@@H](C)C(=O)N[C@@H](C)C(=O)N[C@@]1(C)CSCCNC(=O)Cc2ccc(cc2)CC(=O)NCCSC[C@@](C)(C(=O)N[C@@H](C)C(=O)N[C@@H](Cc2c[nH]cn2)C(=O)N[C@@H](C)C(N)=O)NC(=O)[C@H](CC(C)C)NC(=O)[C@H](Cc2ccccc2)NC(=O)[C@H](CCCCN)NC1=O)[C@@H](C)O [compound 7] (Ac-EWAETAA[αMeC]KFL[αMeC]AHA-NH2; linker 8-12 via X1) | 13.5 | ~96.6 | ~93.3 | ~81.3
7 | CC(=O)N[C@@H](CCC(=O)O)C(=O)N[C@@H](Cc1c[nH]c2ccccc12)C(=O)N[C@@H](C)C(=O)N[C@@H](CCC(=O)O)C(=O)N[C@H](C(=O)N[C@@H](C)C(=O)N[C@@H](C)C(=O)N[C@H]1CSCCNC(=O)Cc2ccc(cc2)CC(=O)NCCSC[C@@H](C(=O)N[C@@H](C)C(=O)N[C@@H](Cc2c[nH]cn2)C(=O)N[C@@H](C)C(N)=O)NC(=O)[C@H](CC(C)C)NC(=O)[C@H](Cc2ccccc2)NC(=O)[C@H](CCCCN)NC1=O)[C@@H](C)O [compound 8] (Ac-EWAETAACKFLCAHA-NH2; linker 8-12 via X1) | 7.9 | ~48.9 | ~35.7 | ~21.6
